Among the data in US8981111B2 (priority 2008, dated 2015) are log p and chromatographic logP values, retold here.

The first series in a line: log P (HPLC/MS data of the preparation examples). The following applies: LC-MS, method [b]: pH 2.7 with 0.1% formic acid in water and acetonitrile, linear gradient 10% to 95% acetonitrile.
Take `Cc1cc(C(F)(F)F)nn1CC(=O)Nc1cccc(CON=C(c2ccccc2)c2nccn2C)n1` [Example 279]: the log p is 2.61^[b]. On the same count and under the same terms, the value for `Cn1ccnc1C(=NOCc1cccc(NC(=O)COc2ccccc2)n1)c1ccccc1` [Example 280] was 2.58^[b]; that for `Cn1ccnc1C(=NOCc1cccc(NC(=O)CCC2CCCC2)n1)c1ccccc1` [Example 281] was 3.19^[b]; that for `Cn1ccnc1C(=NOCc1cccc(NC(=O)CCC2CCCCC2)n1)c1ccccc1` [Example 282] was 3.67^[b]. For the compound `Cn1ccnc1C(=NOCc1cccc(NC(=O)CSc2ccccc2)n1)c1ccccc1` [Example 283], the log p is 2.63^[b].

The same series, now with this note: method [b]: LC-MS at pH 2.7, 0.1% formic acid in water / acetonitrile, linear gradient 10% to 95% acetonitrile.
`Cn1ncnc1C(=NOCc1cccc(N2CCCCC2=O)n1)c1ccccc1` [Example 208]: the log p was 2.18^[b].

Regarding `Cc1ncc(C(=NOCc2cccc(N)n2)c2ccccc2)n1C` [Example 209], the log p was 0.56^[b]. Same read-out and setting: the value for `CCCCCOC(=O)Nc1cccc(CON=C(c2ccccc2)c2cnc(C)n2C)n1` [Example 211] was 3.13^[b]; that for `CCCCCC(=O)Nc1cccc(CON=C(c2ccccc2)c2cnc(C)n2C)n1` [Example 212] was 2.08^[b]; that for `Cc1nnsc1C(=NOCc1cccc(N2C(=O)c3ccccc3C2=O)n1)c1ccccc1` [Example 214] was 3.69^[b]. On the same count and under the same terms, the value for `Cc1nnsc1C(=NOCc1cccc(N)n1)c1ccccc1` [Example 215] was 1.63^[b]; that for `CCCCCC(=O)Nc1cccc(CON=C(c2ccccc2)c2snnc2C)n1` [Example 216] was 4.46^[b].

With `CCCCCOC(=O)Nc1cccc(CON=C(c2ccccc2)c2snnc2C)n1` [Example 217], the log p is 5.11^[b]. `Cc1nnsc1C(=NOCc1cccc(NC(=O)CC(C)C)n1)c1ccccc1` [Example 218]: the log p is 3.96^[b]. As to `Cc1nnsc1C(=NOCc1cccc(NC(=O)Cc2ccccc2)n1)c1ccccc1` [Example 219], the log p is 4.04^[b].

As to `Cc1nnsc1C(=NOCc1cccc(NC(=O)CCc2ccccc2)n1)c1ccccc1` [Example 220], the log p is 4.31^[b]. Regarding `Cc1nnsc1C(=NOCc1cccc(NC(=O)CCC2CCCC2)n1)c1ccccc1` [Example 221], the log p is 5^[b].

Regarding `Cc1nnsc1C(=NOCc1cccc(NC(=O)OCC(C)C)n1)c1ccccc1` [Example 222], the log p was 4.65^[b].

`Cc1nnsc1C(=NOCc1cccc(NC(=O)CCC2CCCCC2)n1)c1ccccc1` [Example 223]: the log p is 5.41^[b]. As to `CCCCC(=O)Nc1cccc(CON=C(c2ccccc2)c2snnc2C)n1` [Example 224], the log p was 4.04^[b]. In the case of `Cn1ccnc1C(=NOCc1cccc(N2C(=O)c3ccccc3C2=O)n1)c1cccc(F)c1` [Example 227], the log p is 2.13^[b]. For the compound `Cn1cnnc1C(=NOCc1cccc(C#CCC2CCCC2)n1)c1ccccc1` [Example 230], the log p was 3.76^[b]. As to `Cn1cnnc1C(=NOCc1cccc(C#CCC2CCCCC2)n1)c1ccccc1` [Example 231], the log p was 4.14^[b]. With `Cn1cnnc1C(=NOCc1cccc(C#Cc2ccccc2)n1)c1ccccc1` [Example 232], the log p was 3.15^[b].

Take `Cn1ccnc1C(=NOCc1cccc(N)n1)c1cccc(F)c1` [Example 233]: the log p is 0.54^[b].

In the case of `COc1ccccc1CC(=O)Nc1cccc(CON=C(c2ccccc2)c2ncnn2C)n1` [Example 234], the log p was 3.17^[b]. Regarding `Cn1ncnc1C(=NOCc1cccc(NC(=O)Cc2cccc(F)c2)n1)c1ccccc1` [Example 235], the log p is 3.15^[b]. `COCCC(=O)Nc1cccc(CON=C(c2ccccc2)c2ncnn2C)n1` [Example 237]: the log p is 2.17^[b].

As to `Cn1ncnc1C(=NOCc1cccc(NC(=O)CCc2cccc(Cl)c2)n1)c1ccccc1` [Example 238], the log p is 3.73^[b].

Consider `Cn1ncnc1C(=NOCc1cccc(NC(=O)CCc2cccc(C(F)(F)F)c2)n1)c1ccccc1` [Example 239], for which the log p is 3.87^[b]. In the case of `CC(C(=O)Nc1cccc(CON=C(c2ccccc2)c2ncnn2C)n1)c1ccccc1` (stereo not shown) [Example 240], the log p was 3.42^[b]. Take `Cn1ncnc1C(=NOCc1cccc(NC(=O)Cc2cc(F)cc(F)c2)n1)c1ccccc1` [Example 241]: the log p was 3.33^[b]. As for `Cn1ncnc1C(=NOCc1cccc(NC(=O)Cc2ccc(Cl)cc2)n1)c1ccccc1` [Example 242], the log p is 3.46^[b]. On the same count and under the same terms, the value for `Cn1ncnc1C(=NOCc1cccc(NC(=O)Cc2ccccc2Cl)n1)c1ccccc1` [Example 243] was 3.31^[b]; that for `Cn1ncnc1C(=NOCc1cccc(NC(=O)Cc2cccc(C(F)(F)F)c2)n1)c1ccccc1` [Example 244] was 3.64^[b]; that for `Cn1ncnc1C(=NOCc1cccc(NC(=O)Cc2ccccc2C(F)(F)F)n1)c1ccccc1` [Example 245] was 3.51^[b]. Take `COc1ccc(CC(=O)Nc2cccc(CON=C(c3ccccc3)c3ncnn3C)n2)cc1` [Example 246]: the log p was 3.02^[b]. In the case of `COc1cccc(CC(=O)Nc2cccc(CON=C(c3ccccc3)c3ncnn3C)n2)c1` [Example 247], the log p was 3.06^[b]. Turning to `Cn1ncnc1C(=NOCc1cccc(NC(=O)C2CCCCC2)n1)c1ccccc1` [Example 248], the log p is 3.39^[b]. For the compound `Cn1ncnc1C(=NOCc1cccc(NC(=O)CCCc2ccccc2)n1)c1ccccc1` [Example 249], the log p is 3.6^[b]. The same measure, in the same setting: the value for `Cn1ncnc1C(=NOCc1cccc(NC(=O)CSc2ccccc2)n1)c1ccccc1` [Example 250] was 3.33^[b]; that for `Cn1ncnc1C(=NOCc1cccc(NC(=O)C2CCCCO2)n1)c1ccccc1` (stereo not shown) [Example 251] was 3.15^[b]; that for `CCc1ccc(C(=O)Nc2cccc(CON=C(c3ccccc3)c3ncnn3C)n2)cc1` [Example 252] was 3.73^[b].

`CCCCCOC(=O)Nc1cccc(CON=C(c2ccccc2)c2cncn2C)n1` [Example 253]: the log p was 2.39^[b].

In the case of `CCCCCCCCCC(=O)Nc1cccc(CON=C(c2ccccc2)c2cncn2C)n1` [Example 254], the log p is 3.09^[b]. For `Cn1cncc1C(=NOCc1cccc(NC(=O)COc2ccccc2)n1)c1ccccc1` [Example 255], the log p was 2.04^[b].

For `CCCC(=O)Nc1cccc(CON=C(c2ccccc2)c2cncn2C)n1` [Example 256], the log p was 1.6^[b]. On to `CCCCC(=O)Nc1cccc(CON=C(c2ccccc2)c2cncn2C)n1` [Example 258], for which the log p was 1.82^[b]. The same measure, in the same setting: the value for `CCC(C(=O)Nc1cccc(CON=C(c2ccccc2)c2cncn2C)n1)c1ccccc1` (stereo not shown) [Example 259] was 2.3^[b]; that for `Cn1c(C(=NOCc2nccc(N(C(=O)C3CC3)C(=O)C3CC3)n2)c2ccccc2)cnc1C(=O)C1CC1` [Example 260] was 3.73^[b]. With `CCCc1ccc(C(=O)Nc2cccc(CON=C(c3ccccc3)c3ncnn3C)n2)cc1` [Example 261], the log p is 4.24^[b]. Take `CCC(C)CC(=O)Nc1cccc(CON=C(c2ccccc2)c2nccn2C)n1` (stereo not shown) [Example 262]: the log p is 2.54^[b].

As for `CCCC(C)C(=O)Nc1cccc(CON=C(c2ccccc2)c2nccn2C)n1` (stereo not shown) [Example 263], the log p was 2.54^[b].

Turning to `Cn1ccnc1C(=NOCc1cccc(NC(=O)Cc2cccs2)n1)c1ccccc1` [Example 264], the log p is 2.23^[b]. Take `Cn1ccnc1C(=NOCc1cccc(NC(=O)Cc2ccccc2Cl)n1)c1ccccc1` [Example 265]: the log p was 2.61^[b].

Regarding `COc1ccc(CC(=O)Nc2cccc(CON=C(c3ccccc3)c3nccn3C)n2)cc1` [Example 266], the log p was 2.33^[b]. Still for that read-out and setting: the value for `COc1cccc(CC(=O)Nc2cccc(CON=C(c3ccccc3)c3nccn3C)n2)c1` [Example 267] was 2.37^[b]; that for `COc1ccccc1CC(=O)Nc1cccc(CON=C(c2ccccc2)c2nccn2C)n1` [Example 268] was 2.47^[b]. Regarding `Cn1ccnc1C(=NOCc1cccc(NC(=O)Cc2ccccc2F)n1)c1ccccc1` [Example 269], the log p is 2.4^[b]. Take `COCCC(=O)Nc1cccc(CON=C(c2ccccc2)c2nccn2C)n1` [Example 270]: the log p was 4.53^[b].

With `CSCCC(=O)Nc1cccc(CON=C(c2ccccc2)c2nccn2C)n1` [Example 271], the log p is 1.9^[b]. Consider `Cn1ccnc1C(=NOCc1cccc(NC(=O)OCCF)n1)c1ccccc1` [Example 272], for which the log p is 1.81^[b]. Still for that read-out and setting: the value for `COc1ccc(CC(=O)Nc2cccc(CON=C(c3cccc(F)c3)c3nccn3C)n2)cc1` [Example 273] was 2.54^[b]. Consider `COc1cccc(CC(=O)Nc2cccc(CON=C(c3cccc(F)c3)c3nccn3C)n2)c1` [Example 274], for which the log p is 2.58^[b]. For `COc1ccccc1CC(=O)Nc1cccc(CON=C(c2cccc(F)c2)c2nccn2C)n1` [Example 275], the log p is 2.66^[b]. Consider `Cn1ccnc1C(=NOCc1cccc(NC(=O)Cc2ccccc2F)n1)c1cccc(F)c1` [Example 276], for which the log p was 2.59^[b]. Turning to `COCCC(=O)Nc1cccc(CON=C(c2cccc(F)c2)c2nccn2C)n1` [Example 277], the log p was 1.69^[b].

For `CC(C(=O)Nc1cccc(CON=C(c2cccc(F)c2)c2nccn2C)n1)c1ccccc1` (stereo not shown) [Example 278], the log p is 2.92^[b].

Still in this series, the particulars now being: reversed phase HPLC column, pH 2.7.
The term chromatographic logP denotes a lipophilicity value derived from retention on a column. A lower chromatographic logP goes with a more hydrophilic compound. Take `Cn1cnnc1C(=NOCc1cccc(Br)n1)c1ccccc1` [Example 228, N-[(6-bromopyridin-2-yl)methoxy]-1-(4-methyl-4H-1,2,4-triazol-3-yl)-1-phenylmethanimine]: the chromatographic logP is 2.28. `Cn1cnnc1C(=NOCc1cccc(C#CC2CC2)n1)c1ccccc1` [Example 229, N-{[6-(cyclopropylethynyl)pyridin-2-yl]methoxy}-1-(4-methyl-4H-1,2,4-triazol-3-yl)-1-phenylmethanimine]: the chromatographic logP was determined as 2.56.
